What all share (assay type): cell-based
Experiment [1] deals with T1, Drosophila Dmca1D calcium channel (L23RDD2 α1 + α2−δ + β) (Drosophila melanogaster, UniProt Q24270, A1391P/C1440T/D1375E/D1388K/D1403I/D1421E/D1422S/D1433P/DEL1408-1416/DEL1426-1431/E1379S/E1381Q/E1419P/E1434Y/E1435P/E1441G/G1404N/H1387E/H1396E/I1402K/INS1389RKKLARTA/INS1394[…]/L1420N/M1439T/P1386E/P1400T/Q1392E/Q1417L/R1437P/S1378T/S1395G/T1399P/V1380A/V1436N).
T1 construct: rabbit cardiac α1C subunit amino acids 790-874 (85 aa insert replacing the fly II-III loop segment); expressed in transfected cells; host or cells: Xenopus oocytes injected with cRNA
T1 sequence (P13806 27-960, stated change not applied): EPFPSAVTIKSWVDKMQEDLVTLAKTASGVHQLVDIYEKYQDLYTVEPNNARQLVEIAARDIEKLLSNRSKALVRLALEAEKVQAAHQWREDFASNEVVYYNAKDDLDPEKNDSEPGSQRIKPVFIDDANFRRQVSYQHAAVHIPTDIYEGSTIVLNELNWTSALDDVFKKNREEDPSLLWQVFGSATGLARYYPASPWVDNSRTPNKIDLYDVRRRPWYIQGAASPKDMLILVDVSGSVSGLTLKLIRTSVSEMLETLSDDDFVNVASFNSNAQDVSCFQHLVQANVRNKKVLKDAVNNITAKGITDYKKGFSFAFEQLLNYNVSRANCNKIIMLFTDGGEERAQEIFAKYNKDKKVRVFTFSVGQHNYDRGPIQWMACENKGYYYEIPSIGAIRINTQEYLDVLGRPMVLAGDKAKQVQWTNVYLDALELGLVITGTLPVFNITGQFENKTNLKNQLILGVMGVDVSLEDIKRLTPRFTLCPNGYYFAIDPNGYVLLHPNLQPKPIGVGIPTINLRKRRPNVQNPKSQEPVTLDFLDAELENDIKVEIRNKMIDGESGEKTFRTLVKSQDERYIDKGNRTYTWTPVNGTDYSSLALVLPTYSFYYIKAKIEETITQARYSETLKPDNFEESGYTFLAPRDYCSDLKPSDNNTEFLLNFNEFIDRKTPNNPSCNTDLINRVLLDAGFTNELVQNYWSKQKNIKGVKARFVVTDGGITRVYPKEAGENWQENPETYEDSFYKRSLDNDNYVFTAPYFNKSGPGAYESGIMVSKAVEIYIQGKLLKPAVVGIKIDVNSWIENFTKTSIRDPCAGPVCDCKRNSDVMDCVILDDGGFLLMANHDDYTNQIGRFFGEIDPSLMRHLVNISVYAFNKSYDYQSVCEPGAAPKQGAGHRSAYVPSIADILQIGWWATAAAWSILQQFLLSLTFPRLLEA
T1 sequence (P13806 961-1106, stated change not applied): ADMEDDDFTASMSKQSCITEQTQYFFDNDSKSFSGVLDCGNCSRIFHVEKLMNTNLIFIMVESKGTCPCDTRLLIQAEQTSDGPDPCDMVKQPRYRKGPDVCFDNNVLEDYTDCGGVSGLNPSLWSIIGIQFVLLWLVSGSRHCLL
T1 sequence (Q24270 other isoform, or with tags, fused parts or gaps with the stated changes): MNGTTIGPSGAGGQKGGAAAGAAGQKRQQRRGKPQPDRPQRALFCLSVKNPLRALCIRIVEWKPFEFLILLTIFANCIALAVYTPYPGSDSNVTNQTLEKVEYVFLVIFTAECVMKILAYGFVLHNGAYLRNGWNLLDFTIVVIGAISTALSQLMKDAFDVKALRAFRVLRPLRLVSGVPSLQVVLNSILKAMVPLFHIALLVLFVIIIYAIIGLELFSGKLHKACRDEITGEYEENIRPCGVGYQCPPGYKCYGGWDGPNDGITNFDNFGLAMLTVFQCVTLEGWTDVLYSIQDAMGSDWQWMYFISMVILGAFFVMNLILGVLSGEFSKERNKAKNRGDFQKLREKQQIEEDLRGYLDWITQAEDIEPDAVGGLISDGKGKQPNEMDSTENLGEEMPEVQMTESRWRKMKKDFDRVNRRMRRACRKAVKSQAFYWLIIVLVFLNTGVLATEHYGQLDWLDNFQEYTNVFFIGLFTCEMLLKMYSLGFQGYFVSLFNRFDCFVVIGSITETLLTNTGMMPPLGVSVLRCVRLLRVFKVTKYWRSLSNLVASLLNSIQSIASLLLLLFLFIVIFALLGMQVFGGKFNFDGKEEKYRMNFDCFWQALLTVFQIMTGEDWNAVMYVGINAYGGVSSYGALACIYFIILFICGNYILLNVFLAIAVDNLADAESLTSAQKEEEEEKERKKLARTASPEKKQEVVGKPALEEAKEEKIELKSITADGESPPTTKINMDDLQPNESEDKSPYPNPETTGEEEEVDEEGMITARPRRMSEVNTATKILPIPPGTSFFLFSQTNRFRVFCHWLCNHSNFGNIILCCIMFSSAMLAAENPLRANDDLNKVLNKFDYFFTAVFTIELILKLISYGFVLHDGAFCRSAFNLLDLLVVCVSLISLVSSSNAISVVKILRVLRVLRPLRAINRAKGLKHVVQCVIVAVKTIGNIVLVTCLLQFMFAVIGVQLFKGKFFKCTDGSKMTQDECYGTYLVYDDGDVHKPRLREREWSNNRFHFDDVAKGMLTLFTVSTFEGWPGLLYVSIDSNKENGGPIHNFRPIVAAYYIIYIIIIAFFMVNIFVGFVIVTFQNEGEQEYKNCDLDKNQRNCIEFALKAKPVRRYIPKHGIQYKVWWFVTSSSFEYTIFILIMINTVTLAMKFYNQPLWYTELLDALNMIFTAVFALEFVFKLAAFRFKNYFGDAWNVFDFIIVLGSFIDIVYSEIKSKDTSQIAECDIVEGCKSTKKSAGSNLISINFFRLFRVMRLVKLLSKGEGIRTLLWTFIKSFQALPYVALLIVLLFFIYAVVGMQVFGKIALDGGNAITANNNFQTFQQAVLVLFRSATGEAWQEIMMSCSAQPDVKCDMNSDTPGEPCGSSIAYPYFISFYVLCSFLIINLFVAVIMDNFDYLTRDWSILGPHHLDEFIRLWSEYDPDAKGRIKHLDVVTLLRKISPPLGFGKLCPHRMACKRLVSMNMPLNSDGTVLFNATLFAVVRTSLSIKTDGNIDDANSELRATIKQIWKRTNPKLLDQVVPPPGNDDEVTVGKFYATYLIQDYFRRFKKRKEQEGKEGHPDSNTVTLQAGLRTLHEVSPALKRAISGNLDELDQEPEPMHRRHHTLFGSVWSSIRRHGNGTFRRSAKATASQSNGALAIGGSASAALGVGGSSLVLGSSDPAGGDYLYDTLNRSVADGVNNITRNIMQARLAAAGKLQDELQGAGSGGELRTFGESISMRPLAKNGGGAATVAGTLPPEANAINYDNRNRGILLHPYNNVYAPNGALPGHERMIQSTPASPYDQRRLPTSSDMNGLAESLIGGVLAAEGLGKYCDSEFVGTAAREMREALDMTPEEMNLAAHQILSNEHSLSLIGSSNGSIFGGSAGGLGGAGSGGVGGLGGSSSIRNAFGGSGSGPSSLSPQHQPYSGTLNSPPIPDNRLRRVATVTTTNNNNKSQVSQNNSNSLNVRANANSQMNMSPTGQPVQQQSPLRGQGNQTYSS
Nature of the experiment: Calcium channel currents in Xenopus oocytes expressing Drosophila L23RDD2 α1 with α2-δ and β subunits. Particulars: 2 μM BayK8644, Solution 2, BAPTA preinjection. From the text:
(§1) Construct L23RDD2 in the pAGA2 vector (Wei et al. (1991) J. Biol. Chem. 266:21943-21947) encodes the Drosophila DmcalD calcium channel α1 subunit. The coding sequence begins with the fifth methionine in the published sequence (Zheng et al. (1995) J. Neurosci. 15:1132-1143). A part of the II-III cytoplasmic loop (amino acids […] in Zheng et al. (1995) J. Neurosci. 15:1132-1143) has been replaced with 85 amino acids from the rabbit cardiac α1C subunit (amino acids 790-874, Wei et al. 1991, supra ). The α2−δ subunit used in these studies is MXTα2−δ. This is an EcoRI fragment from the rabbit skeletal muscle α2−δ subunit described by Mikami et al. ((1989) Nature340:230-233) subcloned into the Xenopus oocyte expression vector pBScMXT (from L. Salkoff, Washington, St Louis). The Drosophila beta subunit clone used was β-DN2CI in oocyte expression vector pAGA2. This beta subunit isoform contains both conserved domains and the N2 form of form of the amino terminus. The rabbit cardiac α1C subunit clone (Wei et al. 1991, supra) (in the pAGA2 vector) was CardΔN60 in which the first 60 amino acids on the N terminus were deleted to enhance expression.
(§2) Injection mixtures were prepared in 1 mM Tris pH7.0 and 50 nl was injected into each oocyte. For studies of the Drosophila L23RDD2 channel αl subunit the concentrations of the “undiluted” cocktail in ng/ul were: 300 αl, 150 α2−δ, 83 β. For studies of the rabbit cardiac αl subunit the concentrations of the “undiluted” cocktail in ng/μl were: 12 α1, 6.6 α2−δ, 3.6 β. Oocytes were incubated at 18° C. in ND96 plus supplements (Goldin (1992) Methods Enz. 207:266-279) (changed daily) until recording.
(§3) Two different recording solutions were used. Solution 1 consisted of (in mM): 40 Ba(OH)2, 50 NaOH, 2 KOH, 1 niflumic acid, 0.1 EGTA, 5 HEPES, adjusted to pH 7.4 with methanesulfonic acid (Pragnell et al. (1994) Nature 368:67-70). Solution 2 was used for some experiments and consisted of (in mM): 40 Ba(OH)2, 52 TEA, 5 HEPES, adjusted to pH 7.4 with methanesulfonic acid (Yang et al. (1993) Nature 366:158-161). […]
(§4) FIG. 20 summarizes a dose response curve for the dihydropyridine antagonist nifedipine using oocytes expressing CRNA (in ng/ul): 150 L23RDD2 α1, 75 α2−δ, and 41.5 β. Each point represents 3 to 9 oocytes recorded in Solution 1. […] This compares well with the nifedipine sensitivity determined for this calcium channel in Drosophila larval muscle where 10 μM nifedipine blocks 80% of the current associated with the Dmca1D current (Gielow et al. (1995) J. Neurosci. 15:6085-6093). […] Thus, the Xenopus oocyte expression system is ready for use in testing compounds active against this calcium channel in insects. […]

The target in experiment [2] is T2, rabbit cardiac calcium channel (α1CΔN60 + α2−δ + β) (Oryctolagus cuniculus, UniProt P15381).
T2 construct: expressed in transfected cells; host or cells: Xenopus oocytes injected with cRNA
Put plainly: Calcium channel currents in Xenopus oocytes expressing the rabbit cardiac α1C subunit with α2-δ and β subunits. Particulars: 2 μM BayK8644, Solution 2, BAPTA preinjection. The source says: We completed an analysis of 14 different chimeras to identify the region which was preventing expression of the Drosophila Dmca1D calcium channel currents in Xenopus oocytes. As a result of that analysis we defined a short region of 67 amino acids in the cytoplasmic loop between repeats II and III that was causing the difficulty (see FIG. 11). When an 85 amino acid segment from the rabbit cardiac α1 C subunit was substituted in place of this 67 amino acid Drosophila sequence, we were able to reproducibly generate small calcium channel currents using barium as the charge carrier. In this Example, and in the experiments described in the Examples below, we used a combination of subunit cRNAs. […] When control experiments were run using rabbit cardiac calcium channels, the same auxiliary subunits were used and the rabbit αlCΔN60 subunit was used in place of the Drosophila L23RDD2 α1 chimera.
Construct L23RDD2 in the pAGA2 vector (Wei et al. (1991) J. Biol. Chem. 266:21943-21947) encodes the Drosophila DmcalD calcium channel α1 subunit. The coding sequence begins with the fifth methionine in the published sequence (Zheng et al. (1995) J. Neurosci. 15:1132-1143). A part of the II-III cytoplasmic loop (amino acids 1222-1228 in Zheng et al. (1995) J. Neurosci. 15:1132-1143) has been replaced with 85 amino acids from the rabbit cardiac α1C subunit (amino acids 790-874, Wei et al. 1991, supra ). […]

Experiment [3] deals with T3, Drosophila Dmca1D calcium channel (L23RDD2 α1 + α2−δ + β) (Drosophila melanogaster, UniProt Q24270, A1391P/C1440T/D1375E/D1388K/D1403I/D1421E/D1422S/D1433P/DEL1408-1416/DEL1426-1431/E1379S/E1381Q/E1419P/E1434Y/E1435P/E1441G/G1404N/H1387E/H1396E/I1402K/INS1389RKKLARTA/INS1394QEVVGKPALEEAKEEKIELKSITAD/L1420N/M1439T/P1386E/P1400T/Q1392E/Q1417L/R1437P/S1378T/S1395G/T1399P/V1380A/V1436N).
T3 construct: rabbit cardiac α1C subunit amino acids 790-874 (85 aa insert replacing the fly II-III loop segment); expressed in transfected cells; host or cells: Xenopus oocytes injected with cRNA
T3 sequence (P13806 27-960, stated change not applied): as the sequence (P13806 27-960, stated change not applied) above
T3 sequence (P13806 961-1106, stated change not applied): as the sequence (P13806 961-1106, stated change not applied) above
T3 sequence (Q24270 other isoform, or with tags, fused parts or gaps with the stated changes): as the sequence (Q24270 other isoform, or with tags, fused parts or gaps with the stated changes) above
Nature of the experiment: Calcium channel currents in Xenopus oocytes expressing Drosophila L23RDD2 α1 with α2-δ and β subunits.
Excerpt: as §1, §2, §3, §4

`COC(=O)C1=C(C)NC(C)=C([N+](=O)[O-])C1c1ccccc1C(F)(F)F` (stereo not drawn) [BayK8644]: the “Effect of BayK on the channel current (in words)” value is “no stimulation” in experiment [1]; “increase in the peak current and slowing of the tail currents” in experiment [2]. Also, the “Effect on tail current kinetics in the presence of BayK (in words)” value in experiment [1] was “no obvious change in kinetics”. Also, the results for the “Peak current in the presence of BayK” value in experiment [1] (same oocyte without BayK 1548.5 nA) and in experiment [2] (same oocyte without BayK 488.2 nA) were 1208.1 nA and 1673.7 nA, respectively.
Consider `COC(=O)C1=C(C)NC(C)=C(C(=O)OC)C1c1ccccc1[N+](=O)[O-]` [nifedipine], for which the EC50 in experiment [3] is about 3 µM.

(Values after US6436627B1, “Gene encoding an invertebrate α1 calcium channel subunit” (The Research Foundation of State University of New York, priority 1995, dated 2002).)
